# In ChEMBL document CHEMBL6153041, “Discovery of High-Affinity SMARCA2/4 Bromodomain Ligands and Development of Potent and Exceptionally Selective SMARCA2 PROTAC Degraders” (J Med Chem, 2025):
# How the values were obtained:
# [1] = molecular target: T1, von Hippel-Lindau disease tumor suppressor/SWI/SNF-related matrix-associated actin-dependent regulator of chromatin subfamily A member 4 (Homo sapiens, UniProt P51532+P40337); experiment: PROTAC activity at VHL1/SMARCA4 in human genetically modified Hela cells assessed as degradation measured after 24 hrs incubation by Nano-Glo HiBiT Lytic Detection Assay; format: cell-based
# Target sequence in this assay (P51532 whole entry): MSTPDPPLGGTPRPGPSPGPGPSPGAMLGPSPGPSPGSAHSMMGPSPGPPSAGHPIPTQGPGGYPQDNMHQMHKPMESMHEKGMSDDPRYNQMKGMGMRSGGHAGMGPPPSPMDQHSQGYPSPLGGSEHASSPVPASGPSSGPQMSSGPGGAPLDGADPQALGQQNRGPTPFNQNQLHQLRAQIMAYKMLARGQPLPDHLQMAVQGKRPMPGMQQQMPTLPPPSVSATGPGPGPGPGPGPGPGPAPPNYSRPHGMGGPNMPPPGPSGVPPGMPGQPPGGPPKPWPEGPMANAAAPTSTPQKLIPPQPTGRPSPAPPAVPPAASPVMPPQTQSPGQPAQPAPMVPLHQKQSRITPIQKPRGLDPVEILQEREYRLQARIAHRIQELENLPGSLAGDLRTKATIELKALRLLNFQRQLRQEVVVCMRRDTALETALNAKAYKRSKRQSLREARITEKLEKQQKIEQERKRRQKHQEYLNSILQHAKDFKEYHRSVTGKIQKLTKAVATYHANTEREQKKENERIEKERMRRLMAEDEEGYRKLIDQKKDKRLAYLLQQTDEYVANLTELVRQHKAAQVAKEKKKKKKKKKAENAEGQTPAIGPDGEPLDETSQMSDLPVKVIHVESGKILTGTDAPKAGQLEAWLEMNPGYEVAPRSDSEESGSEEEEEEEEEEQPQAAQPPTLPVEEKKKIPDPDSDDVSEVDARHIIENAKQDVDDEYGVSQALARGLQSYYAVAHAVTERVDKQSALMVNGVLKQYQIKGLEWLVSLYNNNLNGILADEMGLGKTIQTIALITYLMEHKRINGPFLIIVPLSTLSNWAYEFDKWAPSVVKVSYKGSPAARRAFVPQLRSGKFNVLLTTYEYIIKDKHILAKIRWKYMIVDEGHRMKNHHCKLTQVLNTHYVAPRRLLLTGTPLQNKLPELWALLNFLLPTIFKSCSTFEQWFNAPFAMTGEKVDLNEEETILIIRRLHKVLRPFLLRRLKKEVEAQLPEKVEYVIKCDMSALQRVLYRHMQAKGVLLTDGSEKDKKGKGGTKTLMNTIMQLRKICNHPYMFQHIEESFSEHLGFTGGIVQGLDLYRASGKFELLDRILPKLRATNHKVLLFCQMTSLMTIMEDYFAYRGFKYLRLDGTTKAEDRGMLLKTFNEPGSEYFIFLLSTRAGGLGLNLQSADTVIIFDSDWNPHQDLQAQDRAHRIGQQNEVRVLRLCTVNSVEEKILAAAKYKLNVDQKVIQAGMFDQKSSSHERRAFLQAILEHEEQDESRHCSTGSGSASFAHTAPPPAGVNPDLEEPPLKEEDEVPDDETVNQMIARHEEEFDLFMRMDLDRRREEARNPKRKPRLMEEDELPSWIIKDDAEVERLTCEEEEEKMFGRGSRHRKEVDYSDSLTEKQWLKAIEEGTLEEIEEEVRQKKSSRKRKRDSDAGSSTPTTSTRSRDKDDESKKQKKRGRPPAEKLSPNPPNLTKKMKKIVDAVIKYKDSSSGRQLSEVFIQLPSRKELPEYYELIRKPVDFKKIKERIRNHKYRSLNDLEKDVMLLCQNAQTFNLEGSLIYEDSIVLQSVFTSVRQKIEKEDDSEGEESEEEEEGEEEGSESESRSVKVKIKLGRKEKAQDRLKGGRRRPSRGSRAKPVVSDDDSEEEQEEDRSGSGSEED
# Target sequence in this assay (P40337 whole entry): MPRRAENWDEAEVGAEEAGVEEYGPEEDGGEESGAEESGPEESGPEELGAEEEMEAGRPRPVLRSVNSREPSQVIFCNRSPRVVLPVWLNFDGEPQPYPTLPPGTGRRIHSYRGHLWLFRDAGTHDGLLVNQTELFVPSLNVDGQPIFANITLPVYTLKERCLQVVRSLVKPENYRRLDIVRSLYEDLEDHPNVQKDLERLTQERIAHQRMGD
# [2] = molecular target: T2, von Hippel-Lindau disease tumor suppressor/SWI/SNF-related matrix-associated actin-dependent regulator of chromatin subfamily A member 2 (Homo sapiens, UniProt P51531+P40337); experiment: PROTAC activity at VHL1/SMARCA2 in human genetically modified Hela cells assessed as maximal degradation measured after 24 hrs incubation by Nano-Glo HiBiT Lytic Detection Assay relative to control; format: cell-based
# Target sequence in this assay (P40337 whole entry, looked up): as the sequence (P40337 whole entry) above
# Target sequence in this assay (P51531 whole entry, looked up): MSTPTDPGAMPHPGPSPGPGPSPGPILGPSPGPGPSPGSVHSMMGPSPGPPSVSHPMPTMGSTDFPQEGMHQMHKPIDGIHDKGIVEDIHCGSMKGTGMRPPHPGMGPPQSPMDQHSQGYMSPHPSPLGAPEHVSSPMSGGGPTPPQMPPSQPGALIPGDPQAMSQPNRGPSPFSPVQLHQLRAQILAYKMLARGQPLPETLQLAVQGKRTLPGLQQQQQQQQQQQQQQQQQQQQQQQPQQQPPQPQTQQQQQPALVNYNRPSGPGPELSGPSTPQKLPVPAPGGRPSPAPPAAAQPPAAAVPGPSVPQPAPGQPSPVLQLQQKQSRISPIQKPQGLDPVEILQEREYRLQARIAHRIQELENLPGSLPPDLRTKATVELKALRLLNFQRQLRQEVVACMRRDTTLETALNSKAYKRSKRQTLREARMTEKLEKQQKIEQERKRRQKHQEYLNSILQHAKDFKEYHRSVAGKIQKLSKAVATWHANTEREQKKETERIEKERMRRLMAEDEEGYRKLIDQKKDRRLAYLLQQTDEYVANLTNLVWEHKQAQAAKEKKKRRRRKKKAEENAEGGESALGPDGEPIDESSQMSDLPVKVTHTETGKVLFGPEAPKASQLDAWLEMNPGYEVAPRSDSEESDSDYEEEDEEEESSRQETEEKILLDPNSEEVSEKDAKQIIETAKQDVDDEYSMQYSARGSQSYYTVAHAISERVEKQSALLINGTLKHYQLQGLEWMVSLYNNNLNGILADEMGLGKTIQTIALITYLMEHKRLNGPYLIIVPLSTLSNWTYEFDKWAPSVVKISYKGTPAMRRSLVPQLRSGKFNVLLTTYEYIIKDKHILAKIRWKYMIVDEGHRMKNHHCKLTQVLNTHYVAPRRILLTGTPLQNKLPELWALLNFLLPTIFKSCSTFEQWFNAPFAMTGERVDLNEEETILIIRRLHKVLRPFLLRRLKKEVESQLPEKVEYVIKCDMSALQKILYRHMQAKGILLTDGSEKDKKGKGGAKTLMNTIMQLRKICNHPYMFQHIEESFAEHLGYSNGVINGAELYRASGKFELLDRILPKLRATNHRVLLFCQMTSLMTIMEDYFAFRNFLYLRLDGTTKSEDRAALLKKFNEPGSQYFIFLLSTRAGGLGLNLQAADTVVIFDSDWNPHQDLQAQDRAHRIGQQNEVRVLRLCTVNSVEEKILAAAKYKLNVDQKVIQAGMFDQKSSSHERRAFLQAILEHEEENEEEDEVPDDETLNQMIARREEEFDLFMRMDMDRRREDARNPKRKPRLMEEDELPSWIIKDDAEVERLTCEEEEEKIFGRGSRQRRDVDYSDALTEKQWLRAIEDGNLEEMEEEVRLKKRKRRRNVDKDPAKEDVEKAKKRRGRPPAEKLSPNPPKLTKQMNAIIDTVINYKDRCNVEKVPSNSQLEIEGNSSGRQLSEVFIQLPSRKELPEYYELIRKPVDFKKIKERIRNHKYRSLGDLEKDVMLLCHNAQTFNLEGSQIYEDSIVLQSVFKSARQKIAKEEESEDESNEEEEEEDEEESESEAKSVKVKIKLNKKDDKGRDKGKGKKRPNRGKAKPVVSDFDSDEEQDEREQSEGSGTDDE
# [3] = molecular target: T2, von Hippel-Lindau disease tumor suppressor/SWI/SNF-related matrix-associated actin-dependent regulator of chromatin subfamily A member 2; experiment: PROTAC activity at VHL1/SMARCA2 in human genetically modified Hela cells assessed as degradation measured after 24 hrs incubation by Nano-Glo HiBiT Lytic Detection Assay; format: cell-based
# Target sequence in this assay (P51531 whole entry): as the sequence (P51531 whole entry, looked up) above
# Target sequence in this assay (P40337 whole entry): as the sequence (P40337 whole entry) above
# HeLa = experiment: Selectivity ratio, ratio of DC50 for VHL1/SMARCA4 in human genetically modified Hela cells to VHL1/SMARCA2 in human genetically modified Hela cells; format: cell-based
# [4] = molecular target: T1, von Hippel-Lindau disease tumor suppressor/SWI/SNF-related matrix-associated actin-dependent regulator of chromatin subfamily A member 4; experiment: PROTAC activity at VHL1/SMARCA4 in human genetically modified Hela cells assessed as maximal degradation measured after 24 hrs incubation by Nano-Glo HiBiT Lytic Detection Assay relative to control; format: cell-based
# Target sequence in this assay (P40337 whole entry, looked up): as the sequence (P40337 whole entry) above
# Target sequence in this assay (P51532 whole entry, looked up): as the sequence (P51532 whole entry) above
# [5] = molecular target: SWI/SNF-related matrix-associated actin-dependent regulator of chromatin subfamily A member 2 (Homo sapiens, UniProt P51531); experiment: Inhibition of recombinant human GST-tagged SMARCA2 bromodomain measured after 120 mins incubation by TR-FRET assay
# [6] = molecular target: SWI/SNF-related matrix-associated actin-dependent regulator of chromatin subfamily A member 4 (Homo sapiens, UniProt P51532); experiment: Inhibition of recombinant human GST-tagged SMARCA4 bromodomain measured after 120 mins incubation by TR-FRET assay
# Sequence of SWI/SNF-related matrix-associated actin-dependent regulator of chromatin subfamily A member 4 (P51532 whole entry): as above
# Sequence of SWI/SNF-related matrix-associated actin-dependent regulator of chromatin subfamily A member 2 (P51531 whole entry): as the sequence (P51531 whole entry, looked up) above
SMILES,IC50 [5],IC50 [6],DC50 [1],Emax [2],DC50 [3],Ratio (HeLa),Emax [4]
Cc1ncsc1-c1ccc([C@H](C)NC(=O)[C@@H]2C[C@@H](O)CN2C(=O)[C@@H](NC(=O)CN2CCC(c3ccc4c(c3)C3(CCCCC3)c3nc(=O)c5c(Cl)cccc5n3-4)CC2)C(C)(C)C)cc1,,,8.7 nM,97%,5.3 nM,2,97%
O=c1nc2n(c3cccc(Cl)c13)-c1ccc(C3CCNCC3)cc1C21CCCCCC1,153 nM,129 nM,,,,,
O=c1nc2n(C3CCCC3)c3cc(C4CCNCC4)ccc3n2c2cccc(Br)c12,45 nM,83 nM,,,,,
Cc1ncsc1-c1ccc([C@H](C)NC(=O)[C@@H]2C[C@@H](O)CN2C(=O)[C@@H](c2cc(N3CCC(CN4CCC(O[C@H]5C[C@H](Oc6cc(CN7C8CCC7CN(c7cc(-c9ccccc9O)nnc7N)C8)ccn6)C5)CC4)CC3)no2)C(C)C)cc1,,,1.3 nM,97%,0.1 nM,13,96%
Cc1ncsc1-c1ccc([C@H](C)NC(=O)[C@@H]2C[C@@H](O)CN2C(=O)[C@@H](NC(=O)CCN2CCC(c3ccc4c(c3)C3(CCCCC3)c3nc(=O)c5c(Cl)cccc5n3-4)CC2)C(C)(C)C)cc1,,,543 nM,93%,99 nM,6,77%
Cc1ncsc1-c1ccc([C@H](C)NC(=O)[C@@H]2C[C@@H](O)CN2C(=O)[C@@H](NC(=O)CCCN2CCC(c3ccc4c(c3)C3(CCCCC3)c3nc(=O)c5c(Cl)cccc5n3-4)CC2)C(C)(C)C)cc1,,,7000 nM,87%,61 nM,115,70%
Cc1ncsc1-c1ccc([C@H](C)NC(=O)[C@@H]2C[C@@H](O)CN2C(=O)[C@@H](NC(=O)[C@H]2CC[C@H](CN3CCC(c4ccc5c(c4)C4(CCCCC4)c4nc(=O)c6c(Br)cccc6n4-5)CC3)CC2)C(C)(C)C)cc1,,,162 nM,93%,3 nM,54,58%
Cc1ncsc1-c1ccc([C@H](C)NC(=O)[C@@H]2C[C@@H](O)CN2C(=O)[C@@H](NC(=O)CCCCN2CCC(c3ccc4c(c3)C3(CCCCC3)c3nc(=O)c5c(Cl)cccc5n3-4)CC2)C(C)(C)C)cc1,,,> 10000 nM,88%,105 nM,> 950,> 39%
O=c1nc2n(c3cccc(Cl)c13)-c1ccc(C3CCNCC3)cc1C21CCOCC1,538 nM,612 nM,,,,,
Cc1ncsc1-c1ccc([C@H](C)NC(=O)[C@@H]2C[C@@H](O)CN2C(=O)[C@@H](NC(=O)[C@H]2CC[C@H](CN3CCC(c4ccc5c(c4)-n4c(nc(=O)c6c(Br)cccc64)C54CCCCC4)CC3)CC2)C(C)(C)C)cc1,,,> 10000 nM,88%,14 nM,> 700,37%
O=c1nc2n(c3cccc(Cl)c13)-c1ccc(C3CCNCC3)cc1C21CCNCC1,3450 nM,3340 nM,,,,,
Cc1ncsc1-c1ccc([C@H](C)NC(=O)[C@@H]2C[C@@H](O)CN2C(=O)[C@@H](NC(=O)[C@H]2CC[C@H](CN3CCC(c4ccc5c(c4)C4(CCCCC4)c4nc(=O)c6c(Cl)cccc6n4-5)CC3)CC2)C(C)(C)C)cc1,,,> 10000 nM,92%,,> 1500,48%
O=c1nc2n(c3cccc(Cl)c13)-c1cc(C3CCNCC3)ccc1C21CCOCC1,630 nM,1150 nM,,,,,
Cc1ncsc1-c1ccc([C@H](CCCCCN2CCC(c3ccc4c(c3)C3(CCCCC3)c3nc(=O)c5c(Br)cccc5n3-4)CC2)NC(=O)[C@@H]2C[C@@H](O)CN2C(=O)[C@@H](NC(=O)C2(F)CC2)C(C)(C)C)cc1,,,1.7 nM,97%,0.24 nM,7,97%
O=c1nc2n(c3cccc(Cl)c13)-c1ccc(C3CCNCC3)cc1C21CCCC1,56 nM,55 nM,,,,,
Cc1ncsc1-c1ccc([C@H](C)NC(=O)[C@@H]2C[C@@H](O)CN2C(=O)[C@@H](NC(=O)CCCCCN2CCC(c3ccc4c(c3)C3(CCCCC3)c3nc(=O)c5c(Cl)cccc5n3-4)CC2)C(C)(C)C)cc1,,,697 nM,94%,29 nM,24,55%
Cc1ncsc1-c1ccc([C@H](C)NC(=O)[C@@H]2C[C@@H](O)CN2C(=O)[C@@H](NC(=O)[C@H]2CC[C@H](CN3CC4(CCC(n5cc(-c6cc(-c7ccccc7O)nnc6N)cn5)CC4)C3)CC2)C(C)(C)C)cc1,,,895 nM,93%,23 nM,39,52%
Cc1ncsc1-c1ccc([C@H](CCCCCN2CCC(c3ccc4c(c3)-n3c(nc(=O)c5c(Cl)cccc53)C43CCCCC3)CC2)NC(=O)[C@@H]2C[C@@H](O)CN2C(=O)[C@@H](NC(=O)C2(F)CC2)C(C)(C)C)cc1,,,22 nM,92%,7.5 nM,3,87%
Cc1ncsc1-c1ccc([C@H](CCCCCN2CCC(c3ccc4c(c3)-n3c(nc(=O)c5c(Br)cccc53)C43CCCCC3)CC2)NC(=O)[C@@H]2C[C@@H](O)CN2C(=O)[C@@H](NC(=O)C2(F)CC2)C(C)(C)C)cc1,,,84 nM,95%,3 nM,28,93%

# Second part, led by results:
IC50 [5],IC50 [6],SMILES,DC50 [1],Emax [2],DC50 [3],Ratio (HeLa),Emax [4]
106 nM,133 nM,O=c1nc2n(c3cccc(Cl)c13)-c1cc(C3CCNCC3)ccc1C21CCCC1,,,,,
30 nM,38 nM,O=c1nc2n(c3cccc(Br)c13)-c1ccc(C3CCNCC3)cc1C21CCCCC1,,,,,
4520 nM,3210 nM,O=c1nc2n(c3cccc(O)c13)-c1cc(C3CCNCC3)ccc1C21CCCCC1,,,,,
64 nM,90 nM,O=c1nc2n(c3cccc(Br)c13)-c1cc(C3CCNCC3)ccc1C21CCCCC1,,,,,
62 nM,51 nM,O=c1nc2n(c3cccc(Br)c13)-c1ccc(C3CCNCC3)cc1C21CCCC1,,,,,
53 nM,,O=c1nc2n(c3cccc(Cl)c13)-c1ccc(C3CCNCC3)cc1C21CCCCC1,,,,,
> 10000 nM,> 10000 nM,O=c1nc2n(c3ccnc(O)c13)-c1cc(C3CCNCC3)ccc1C21CCCCC1,,,,,
> 10000 nM,> 10000 nM,O=c1nc2n(c3nccc(O)c13)-c1cc(C3CCNCC3)ccc1C21CCCCC1,,,,,
3400 nM,2840 nM,CCc1cccc2c1c(=O)nc1n2-c2cc(C3CCNCC3)ccc2C12CCCCC2,,,,,
3070 nM,1440 nM,O=c1nc2n(c3ccccc13)-c1cc(C3CCNCC3)ccc1C21CCCCC1,,,,,
